{"source": "patent US7851503B2", "about": "“Thrombopoetin receptor activator and process for producing the same” (Nissan Chemical Industries, Ltd., priority 2002, dated 2010)", "key": {"[1]": {"system": "UT7/EPO-mpl cells (expressing human TPO receptor (c-mpl))", "assay": "Cell proliferation assay by the MTT method, TPO-dependent cell line UT7/EPO-mpl", "format": "cell-based", "details": "4 days incubation, absorbance at 550 nm", "description": "Stimulation of Proliferation of a Thrombopoietin (TPO)-Dependent Cell Line (1)\n(§1) The reactivity of a compound of the present invention, xanthocillin X monomethyl ether, with thrombopoietin (TPO) receptor was assayed using a human leukemic cell line, UT7/EPO-mpl. UT7/EPO-mpl is a stable transformed cell line obtained by introducing into human leukemic cell line UT7/EPO a vector that induces expression of human TPO receptor (c-mpl) under control of a cytomegaloviral promoter by the method of Takatoku et al. (J. Biol. Chem., 272:7259-7263 (1997)). […] These two cell lines were subcultured in IMDM (GIBCO) containing 10% fetal bovine serum (FBS; TRACE SCIENTIFIC) using a CO2 incubator (5% CO2, 37° C.).\nThe subcultured cells described above were washed twice with PBS and suspended in IMDM containing 10% FBS at a cell density of 6×10^4 cells/ml. The cell suspension was transferred to a 96-well tissue culture plate (CORNING) in 100-μl aliquots. Then, xanthocillin X monomethyl ether dissolved in DMSO was diluted 83-fold with IMDM containing 10% FBS and added to the aforementioned cell suspension in 20-μl aliquots. […] The formazan pigment generated was dissolved by adding 150 μl per well of 0.1 M/L HCl/isopropanol solution and the absorbance of the resulting pigment solution was measured at 550 nm with a 96-well microplate reader (BIO-RAD, M450)."}, "[2]": {"system": "UT7/EPO cells", "assay": "Cell proliferation assay by the MTT method, mother cell line UT7/EPO expressing no TPO receptor", "format": "cell-based, human", "details": "4 days incubation, absorbance at 550 nm", "description": "as §1\nThe subcultured cells described above were washed twice with PBS and suspended in IMDM containing 10% FBS at a cell density of 6×10^4 cells/ml. The cell suspension was transferred to a 96-well tissue culture plate (CORNING) in 100-μl aliquots. Then, xanthocillin X monomethyl ether dissolved in DMSO was diluted 83-fold with IMDM containing 10% FBS and added to the aforementioned cell suspension in 20-μl aliquots. The suspension was incubated in a CO2 incubator (5% CO2, 37° C.) for 4 days. […] The formazan pigment generated was dissolved by adding 150 μl per well of 0.1 M/L HCl/isopropanol solution and the absorbance of the resulting pigment solution was measured at 550 nm with a 96-well microplate reader (BIO-RAD, M450)."}, "[3]": {"system": "UT7/EPO-mpl cells (expressing human TPO receptor (c-mpl))", "assay": "Cell proliferation assay with WST-8 reagent, TPO-dependent cell line UT7/EPO-mpl", "format": "cell-based", "details": "4 days incubation, absorbance at 450 nm", "description": "Stimulation of Proliferation of a Thrombopoietin (TPO)-Dependent Cell Line (2)\nThe reactivity of a compound of the present invention, 3-methoxyxanthocillin X dimethyl ether, with thrombopoietin (TPO) receptor was assayed using a human leukemic cell line, UT7/EPO-mpl.\n(§2) Cells subcultured in the same manner as in Assay Example 1(1) were washed twice with PBS and suspended in IMDM containing 10% FBS at a cell density of 6×10^4 cells/ml. The cell suspension was transferred to a 96-well tissue culture plate (CORNING) in 100-μl aliquots. Then, 3-methoxyxanthocillin X dimethyl ether dissolved in DMSO was diluted 83-fold with IMDM containing 10% FBS and added to the aforementioned cell suspension in 20-μl aliquots. The suspension was incubated in a CO2 incubator (5% CO2, 37° C.) for 4 days. Cell proliferation was assayed using WST-8 reagent (Kishida Chemical Co., Ltd.) according to instructions by the manufacturer. A 10-μl aliquot of 5 mM WST-8 reagent solution was added to each well of the tissue culture plate, and the plate was incubated at 37° C. for 4 h. The formazan pigment generated was detected by measuring the absorbance at 450 nm with a 96-well microplate reader (Nihon Molecular Devices, Spectramax 190)."}, "[4]": {"system": "UT7/EPO cells", "assay": "Cell proliferation assay with WST-8 reagent, mother cell line UT7/EPO expressing no TPO receptor", "format": "cell-based, human", "details": "4 days incubation, absorbance at 450 nm", "description": "as §2"}}, "data": [{"molecule": "[C-]#[N+]C(=C\\c1ccc(O)cc1)/C(=C/c1ccc(OC)cc1)[N+]#[C-]", "note": "[xanthocillin X monomethyl ether]", "values": [{"measurement": "proliferation of TPO-responsive UT7/EPO-mpl cells (MTT assay, FIG. 1)", "setting": "[1]", "value": "stimulated"}, {"measurement": "effect on proliferation of UT7/EPO, the mother cell line (MTT assay, FIG. 2)", "setting": "[2]", "value": "no effect"}]}, {"molecule": "[C-]#[N+]C(=Cc1ccc(OC)cc1)C(=Cc1ccc(OC)c(OC)c1)[N+]#[C-]", "note": "[3-methoxyxanthocillin X dimethyl ether]", "values": [{"measurement": "proliferation of TPO-responsive UT7/EPO-mpl cells (WST assay, FIG. 3)", "setting": "[3]", "value": "stimulated"}, {"measurement": "effect on proliferation of UT7/EPO, the mother cell line (WST assay, FIG. 4)", "setting": "[4]", "value": "no effect"}]}]}
